Measured values published in patent US11471459B2, “Compounds with enhanced anti-tumor effects” (FONDAZIONE PER L'ISTITUTO ONCOLOGICO DI RICERCA (IOR), priority 2018, dated 2022).

Experiments:
Type in all cases: cell-based
[1] = system: OCI-LY-1; assay: Proliferation MTT assay, 72 h; details: Homo sapiens, OCI-Ly1, OCI-LY-1 (GCB-DLBCL), 72 h exposure
Procedure: (§1) Thirty-nine cell lines derived from activated B cell-like (ABC) (n=3) and germinal center B Cell (GCB) (n=12) diffuse large B cell lymphoma (DLBCL), mantle cell lymphoma (MCL) (n=9), chronic lymphocytic leukemia (CLL) (n=2), Hodgkin lymphoma (HL) (n=4), cutaneous T cell lymphoma (CTCL) (n=3), peripheral T cell lymphoma (PTCL) (n=1), anaplastic large T cell lymphoma (ALCL) (n=4), acute T cell leukemia (ATCL) (n=1) were cultured according to the recommended conditions. All media were supplemented with fetal bovine serum (10%), Penicillin-Streptomycin-Neomycin (˜5,000 units penicillin, 5 mg streptomycin and 10 mg neomycin/mL, Sigma) and L-glutamine (1%).
(§2) EG-011 was dissolved in dimethyl sulphoxide (DMSO) to obtain a stock concentration of 10 mM for in vitro experiments. EG-011 was dissolved in 25% hydroxypropyl beta cyclodextrin (HP-β-CD) in water and adjusted at pH 6.0 using NaOH (0.1 N) and HCl (0.1 N) for in vivo experiments. Application volume was 4.5 mL/kg (100 mg in 4.5 mL), and mice received 200 microliters (corresponding to 200 mg/kg) though intra peritoneal i.p. injection, once per day and five days per week.
(§3) Cells were seeded in 96-well plates (non-tissue culture treated) at a density of 10,000 cells for all cell lines. Each compound was dissolved in dimethyl sulphoxide (DMSO). For treatment of cells, compounds were serially diluted in the appropriate tissue culture medium, at a range of 20 mcM-78 nM following a 1:2 dilution factor and added to cells (in three replicates). Cells were incubated for 72 hours at 37° C., 5% CO2. DMSO alone was added to negative control (untreated) cells. Wells containing medium only were included on each plate and served as blanks for absorbance readings. MTT (Sigma-Aldrich Chemie GmbH, Buchs, Switzerland) was prepared as a 5 mg/ml stock in PBS and filter-sterilized. MTT solution (22 μL) was added to each well and tissue culture plates were incubated at 37° C. for 4 hours. Cells were then lysed with 25% SDS lysis buffer and absorbance was read at 570 nm using an AD340 plate reader (Beckman Coulter International SA, Switzerland). Absorbance values were expressed in percentage of proliferating cells in comparison with control cells (control corresponds to 100%).

[2] = system: OCI-LY-3; assay: Proliferation MTT assay, 72 h; details: Homo sapiens, OCI-Ly3, OCI-LY-3 (ABC-DLBCL), 72 h exposure
Procedure: as §1, §2, §3

[3] = system: JURKAT; assay: Proliferation MTT assay, 72 h; details: Homo sapiens, JURKAT (T Cell Leukemia), 72 h exposure
Procedure: as §1, §2, §3

[4] = system: SP53; assay: Proliferation MTT assay, 72 h; details: SP53 (MCL), 72 h exposure
Procedure: as §1, §2, §3

[5] = system: FEPD; assay: Proliferation MTT assay, 72 h; details: FEPD (T Cell-PTCL), 72 h exposure
Procedure: as §1, §2, §3

[6] = system: SU-DHL-2; assay: Proliferation MTT assay, 72 h; details: Homo sapiens, SU-DHL-2 (ABC-DLBCL), 72 h exposure
Procedure: as §1, §2, §3

[7] = system: GRANTA519; assay: Proliferation MTT assay, 72 h; details: Homo sapiens, Granta-519, GRANTA519 (MCL), 72 h exposure
Procedure: as §1, §2, §3

[8] = system: KARPAS-299; assay: Proliferation MTT assay, 72 h; details: Homo sapiens, KARPAS-299 (T Cell - ALCL), 72 h exposure
Procedure: as §1, §2, §3

[9] = system: RCK8; assay: Proliferation MTT assay, 72 h; details: Homo sapiens, RCK8 (GCB-DLBCL), 72 h exposure
Procedure: as §1, §2, §3

[10] = system: JEKO1; assay: Proliferation MTT assay, 72 h; details: Homo sapiens, JeKo-1, JEKO1 (MCL), 72 h exposure
Procedure: as §1, §2, §3

[11] = system: L-82; assay: Proliferation MTT assay, 72 h; details: L-82 (T Cell - ALCL), 72 h exposure
Procedure: as §1, §2, §3

[12] = system: SU-DHL-16; assay: Proliferation MTT assay, 72 h; details: Homo sapiens, SU-DHL-16 (GCB-DLBCL), 72 h exposure
Procedure: as §1, §2, §3

[13] = system: MAVER1; assay: Proliferation MTT assay, 72 h; details: Homo sapiens, MAVER1 (MCL), 72 h exposure
Procedure: as §1, §2, §3

[14] = system: SU-DHL-8; assay: Proliferation MTT assay, 72 h; details: Homo sapiens, SU-DHL-8 (GCB-DLBCL), 72 h exposure
Procedure: as §1, §2, §3

[15] = system: PCL-12; assay: Proliferation MTT assay, 72 h; details: PCL-12 (CLL), 72 h exposure
Procedure: as §1, §2, §3

[16] = system: OCI-LY-8; assay: Proliferation MTT assay, 72 h; details: OCI-Ly8, OCI-LY-8 (GCB-DLBCL), 72 h exposure
Procedure: as §1, §2, §3

[17] = system: OCI-LY-10; assay: Proliferation MTT assay, 72 h; details: Homo sapiens, OCI-Ly10, OCI-LY-10 (ABC-DLBCL), 72 h exposure
Procedure: as §1, §2, §3

[18] = system: HH; assay: Proliferation MTT assay, 72 h; details: Homo sapiens, HH (T Cell - CTCL), 72 h exposure
Procedure: as §1, §2, §3

[19] = system: SP49; assay: Proliferation MTT assay, 72 h; details: SP49 (MCL), 72 h exposure
Procedure: as §1, §2, §3

[20] = system: TOLEDO; assay: Proliferation MTT assay, 72 h; details: Homo sapiens, TOLEDO (GCB-DLBCL), 72 h exposure
Procedure: as §1, §2, §3

[21] = system: ABC-DLBCL cell lines; assay: Proliferation MTT assay, median per subtype; details: ABC-DLBCL cell lines (n=3), 72 h
Procedure: as §1, §2, §3
(§4) Binomial exact 95% confidence intervals (95% C.I.s) were calculated for median percentages. Differences in IC50 values among lymphoma subtypes were calculated using the t-Student test. Statistical significance was defined by P values of 0.05 or less.

[22] = system: T cell lymphomas (CTCL, PTCL, ALCL) cell lines; assay: Proliferation MTT assay, median per subtype; details: 72 h
Procedure: as §1, §2, §3, §4

[23] = system: HL cell lines; assay: Proliferation MTT assay, median per subtype; details: HL cell lines (n=4), 72 h
Procedure: as §1, §2, §3, §4

[24] = system: MCL cell lines; assay: Proliferation MTT assay, median per subtype; details: MCL cell lines (n=9), 72 h
Procedure: as §1, §2, §3, §4

[25] = system: GCB-DLBCL cell lines; assay: Proliferation MTT assay, median per subtype; details: GCB-DLBCL cell lines (n=12), 72 h
Procedure: as §1, §2, §3, §4

[26] = system: 39 lymphoma cell lines; assay: Proliferation MTT assay, median across the 39 cell lines; details: 95% C.I. 100-20000 nM, 72 h
Procedure: as §1, with “(1%). […]” for “(1%).”
Cells were seeded in 96-well plates (non-tissue culture treated) at a density of 10,000 cells for all cell lines. […] Wells containing medium only were included on each plate and served as blanks for absorbance readings. […] Cells were then lysed with 25% SDS lysis buffer and absorbance was read at 570 nm using an AD340 plate reader (Beckman Coulter International SA, Switzerland). Absorbance values were expressed in percentage of proliferating cells in comparison with control cells (control corresponds to 100%).
Binomial exact 95% confidence intervals (95% C.I.s) were calculated for median percentages. Differences in IC50 values among lymphoma subtypes were calculated using the t-Student test. […]

Structure (SMILES): C=CC(=O)N1CCCC(n2c(=O)c3ncccc3n(Cc3ccc(Oc4ccccc4)cc3)c2=O)C1 (centres unmarked) [EG-011, 1-[(4-phenoxyphenyl)methyl]-3-(1-prop-2-enoyl-3-piperidyl)pyrido[3,2-d]pyrimidine-2,4-dione]
- IC50 [1]: 250 nM
- IC50 [2]: 10 µM
- IC50 [3]: 15 µM
- IC50 [4]: 1000 nM
- IC50 [5]: 3000 nM
- IC50 [6]: 20 µM
- IC50 [7]: 250 nM
- IC50 [8]: 20 µM
- IC50 [9]: 10 µM
- IC50 [10]: 4 µM
- IC50 [11]: 2000 nM
- IC50 [12]: 1500 nM
- IC50 [13]: 20 µM
- IC50 [14]: 300 nM
- IC50 [15]: 7 µM
- IC50 [16]: 300 nM
- IC50 [17]: 5 µM
- IC50 [18]: 15 µM
- IC50 [19]: 8 µM
- IC50 [20]: 600 nM
- IC50 [21]: 10 µM
- IC50 [22]: 2500 nM
- IC50 [23]: 13.5 µM
- IC50 [24]: 1000 nM
- IC50 [25]: 550 nM
- IC50 [26]: 2500 nM
